According to US20210290597A1, “METHOD OF TREATING A CONDITION ASSOCIATED WITH NEURODEGENERATION USING INHIBITORS OF OAT3” (Neuropore Therapies, Inc., priority 2018, published 2021):

Legend:
[1] = target: T1, human transporter OAT1 (Homo sapiens, UniProt Q4U2R8); test: In vitro ion transport assay 1, OAT1-mediated uptake in MDCK-II cells; type: cell-based; details: probe substrate 2 μM [3H]-p-aminohippurate
T1 construct: expressed in transfected cells; host or cells: MDCK-II
T1 sequence (Q4U2R8 1-563): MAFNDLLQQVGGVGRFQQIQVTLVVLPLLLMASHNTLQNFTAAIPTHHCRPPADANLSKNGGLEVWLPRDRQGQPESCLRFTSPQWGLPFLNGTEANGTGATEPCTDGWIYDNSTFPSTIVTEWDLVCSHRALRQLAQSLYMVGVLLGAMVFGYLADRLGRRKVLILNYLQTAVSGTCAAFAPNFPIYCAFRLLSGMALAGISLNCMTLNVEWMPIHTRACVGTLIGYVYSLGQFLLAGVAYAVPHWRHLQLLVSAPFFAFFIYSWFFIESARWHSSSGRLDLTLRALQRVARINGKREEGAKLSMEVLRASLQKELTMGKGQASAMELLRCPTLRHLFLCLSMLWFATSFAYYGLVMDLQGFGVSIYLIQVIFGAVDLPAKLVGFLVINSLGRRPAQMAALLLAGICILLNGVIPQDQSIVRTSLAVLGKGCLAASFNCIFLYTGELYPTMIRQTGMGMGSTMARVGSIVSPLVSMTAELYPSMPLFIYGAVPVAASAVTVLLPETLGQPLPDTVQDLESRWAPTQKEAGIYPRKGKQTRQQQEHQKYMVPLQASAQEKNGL
Procedure: To determine the effect of the ion transporter inhibitors on the uptake activity of solute carrier (SLC) ion transporter proteins such as OAT1 and OAT3, an ion transport assay utilizing a polarized monolayer of MDCK-II cells grown on permeable supports was used. The MDCK-II cells were treated to express the transporter of interest (e.g., OAT3 or OAT 1) or were treated with a control vector. 96-well culture plates with both donor and receiver cells containing a monolayer of MDCK-II cells were maintained at 37° C. in 5% CO2 atmosphere. Radio-labeled para-aminohippurate ([3H]-PAH) was used as a substrate for measuring OAT1 and OAT3 mediated transport, where the transport of the substrate was determined by radiometric detection. OAT1-mediated transport was assayed using 2 μM of [3H]-PAH; OAT3-mediated transport was assayed using 10 μM of [3H]-PAH. The probe substrate for OAT1 was 2 μM [3H]-p-aminohippurate. The probe substrate for OAT3 was 10 μM [3H]p-aminohippurate. The reference inhibitor for both assays was 100 μM probenecid. Following pre incubation of the transfected MDCK-II cells in HBSS, [3H]-PAH was added at the concentrations described above. Wells were then treated with either reference inhibitor probeneic acid or with the test compound. Cells transfected with empty vector served as an additional control. […]

[2] = target: T2, P-gp (MDR1) (Homo sapiens, UniProt P08183); test: In vitro ion transport assay 1, P-gp; type: cell-based; details: probe substrate 100 nM [3H]-quinidine
T2 construct: expressed in transfected cells
Procedure: Compound 1 was studied in the concentration range of 0.1-100 μM for its potency against transport mediated by various transporter proteins. [table]

[3] = test system: monomeric ASYN; test: Monomeric ASYN in brain homogenates, L61 ASYN transgenic mice (ProteinSimple western); type: in vivo; details: 1, 5 or 10 mg/kg per day i.p., 1 month
Procedure: Multiple in vivo administration studies of Compound 1 were carried out in the Line 61 (L61) mThy1-alpha-synuclein transgenic mouse model of Parkinson's disease (PD). The mThy1-alpha-synuclein transgenic mouse model overexpresses wild-type human ASYN under the Thy-1 promoter (commonly referred to as Line 61 transgenic mice; Rockenstein et al., 2002). […]
Alpha-synuclein (ASYN) is a neuronal protein whose dysregulation has been implicated in the pathogenesis of PD. The effects of Compound 1 on alpha-synuclein aggregation were assessed in both L61 ASYN transgenic and non-transgenic mice in a 1 month administration study. […] At the end of one month, the mice were sacrificed, and immunohistochemical (IHC) detection of total alpha-synuclein deposits, insoluble alpha-synuclein deposits (PK+resistant), microtubule-associated protein 1A/1B-light chain 3 (LC3), and monomeric alpha-synuclein levels were assessed in the harvested brain tissues.
Biochemical evaluations were conducted using a ProteinSimple© western biochemical evaluation. Briefly, samples were mixed with pre-calculated volumes of 0.1× Sample Buffer and 5× Fluorescent Master Mix to make a final sample concentration of 0.4 mg/mL in 10 μL solution for signal optimization and evaporation reduction. […]

T2 sequence (P08183 whole entry, species assumed): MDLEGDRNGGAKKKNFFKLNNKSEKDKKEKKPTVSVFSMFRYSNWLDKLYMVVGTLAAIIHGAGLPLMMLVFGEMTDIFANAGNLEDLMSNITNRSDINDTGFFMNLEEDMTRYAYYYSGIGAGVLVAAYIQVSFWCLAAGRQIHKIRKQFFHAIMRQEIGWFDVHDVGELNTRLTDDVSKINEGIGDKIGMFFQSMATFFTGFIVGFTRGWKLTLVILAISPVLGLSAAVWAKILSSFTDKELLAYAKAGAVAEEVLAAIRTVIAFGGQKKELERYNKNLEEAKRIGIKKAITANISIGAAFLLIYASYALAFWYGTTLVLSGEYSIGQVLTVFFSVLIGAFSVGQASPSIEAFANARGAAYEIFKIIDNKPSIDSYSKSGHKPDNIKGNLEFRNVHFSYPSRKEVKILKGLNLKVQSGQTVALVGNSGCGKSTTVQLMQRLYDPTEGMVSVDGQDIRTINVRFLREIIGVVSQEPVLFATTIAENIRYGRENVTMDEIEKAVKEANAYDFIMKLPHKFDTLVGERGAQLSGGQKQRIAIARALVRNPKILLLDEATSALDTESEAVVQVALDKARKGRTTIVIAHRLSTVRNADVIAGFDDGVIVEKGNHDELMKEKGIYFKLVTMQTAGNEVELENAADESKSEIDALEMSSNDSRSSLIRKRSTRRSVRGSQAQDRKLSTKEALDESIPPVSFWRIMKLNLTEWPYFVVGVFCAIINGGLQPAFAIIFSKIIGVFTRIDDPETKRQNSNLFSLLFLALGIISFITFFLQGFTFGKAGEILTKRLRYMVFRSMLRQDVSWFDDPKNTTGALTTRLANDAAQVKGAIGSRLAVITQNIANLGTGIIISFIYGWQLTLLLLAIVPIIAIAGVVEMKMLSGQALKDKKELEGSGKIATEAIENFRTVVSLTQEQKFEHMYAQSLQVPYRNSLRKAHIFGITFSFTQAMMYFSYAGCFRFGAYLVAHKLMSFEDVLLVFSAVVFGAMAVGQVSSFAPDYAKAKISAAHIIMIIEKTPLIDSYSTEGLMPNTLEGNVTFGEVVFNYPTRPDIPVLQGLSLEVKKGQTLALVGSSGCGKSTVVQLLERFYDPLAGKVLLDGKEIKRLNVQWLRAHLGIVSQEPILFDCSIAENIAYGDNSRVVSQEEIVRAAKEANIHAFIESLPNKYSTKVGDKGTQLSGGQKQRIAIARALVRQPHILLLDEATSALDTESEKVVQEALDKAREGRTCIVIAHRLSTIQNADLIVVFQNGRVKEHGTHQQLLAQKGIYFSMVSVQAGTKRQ

- IC50 [1]: 12.9 µM
- IC50 [2]: 37.1 µM
Compound: O=S(=O)(c1ccc(-n2cn[nH]c2=S)cc1)c1ccc(Cl)c(C(F)(F)F)c1 [Compound 1, 4-(4-((4-chloro-3-(trifluoromethyl)phenyl)sulfonyl)phenyl)-2,4-dihydro-3H-1,2,4-triazole-3-thione]
- cortical and hippocampal levels of monomeric ASYN in cytosolic fraction of brain homogenates [3]: reduced
